Entries after “also recorded” stand apart in the source; their conditions may differ.
Columns and labels:
[1] = test system: indigenous microorganisms; test: Effect of sulfite salts on indigenous microorganisms of unsterilized wood chips (plating); format: cell-based, indigenous microorganisms of unsterilized aspen wood chips
Experimental: Aspen wood chips (50 g O.D. basis) were soaked in 500 ml of water containing either 0 mg, 781 mg or 1562 mg sodium bisulfite for about 1 hour at room temperature. After soaking, water was drained from the chips.
During the 1 hour soaking the chips soaked up about 31 ml of water. Therefore, the final moisture content of wood was about 61% (wet weight basis) and the final concentration of each chemical on water basis was about 0 μg/ml, 600 μg/ml and 1200 μg/ml.
Three chips were pulled randomly from each flask and plated on potato dextrose agar and tryptic soy agar plates. These plates were incubated at 27° C. for 24 or 27 h and the contaminants were visually observed.
A panel of other sulfur-containing chemicals were analyzed for their ability to inhibit the growth of indigenous microorganisms on unsterilized wood chips in the manner described above. Table 2 describes the various concentrations of these chemicals and the percent inhibition relative to control plates observed.

[2] = test system: Phanerochaete chrysosporium BKM-F-1767; test: Effect of sodium bisulfite on radial growth and mycelial dry weight of P. chrysosporium; format: cell-based
Experimental: (§1) 2% agar was added to the medium. The medium was autoclaved for 15 min. and the medium was poured into petri dishes. These plates were then inoculated with a plug cut into 8-mm diameter plugs from a petri dish containing a 5-day-old culture of P. chrysosporium or a petri dish containing a 10-day-old culture of another white-rot fungi. P. chrysosporium-inoculated plates were incubated at 39° C. Plates inoculated with other fungi were incubated at 27° C.

H. setulosa FP-106976-sp = test: Effect of sodium bisulfite on radial growth of white-rot fungi; format: cell-based; conditions: 500 μg/ml
Experimental: as §1

P. brevispora 7030-sp = test: as above; format: cell-based; conditions: 500 μg/ml
Experimental: as §1

[3] = test system: P. subserialis RLG-6074-sp; test: as above; format: cell-based; conditions: 500 μg/ml
Experimental: as §1

P. tremellosa PRL-2845 = test: as above; format: cell-based; conditions: 500 μg/ml
Experimental: as §1

C. subvennispora CZ-3 = test: as above; format: cell-based, C. subvermispora; conditions: 500 μg/ml
Experimental: as §1

[4] = test system: C. subvennispora FP-104027-T; test: as above; format: cell-based, C. subvermispora; conditions: 500 μg/ml
Experimental: as §1

[5] = test system: C. subvennispora FP-105752-sp; test: as above; format: cell-based, C. subvermispora; conditions: 500 μg/ml
Experimental: as §1

[6] = test system: C. subvennispora FP-90031-sp; test: as above; format: cell-based, C. subvermispora; conditions: 500 μg/ml
Experimental: as §1

[7] = test system: C. subvennispora L-14807-sp; test: as above; format: cell-based, C. subvermispora; conditions: 500 μg/ml
Experimental: as §1

[8] = test system: C. subvennispora L-15225-sp; test: as above; format: cell-based, C. subvermispora; conditions: 500 μg/ml
Experimental: as §1

[9] = test system: C. subvennispora L-6133-sp; test: as above; format: cell-based, C. subvermispora; conditions: 500 μg/ml
Experimental: as §1

white-rot fungi = test: Effect of sodium bisulfite on radial growth of white-rot fungi (summary); format: cell-based, white-rot fungi listed in Table 7; conditions: 500 μg/ml, 72 and 96 h
Experimental: as §1

## O=S([O-])O.[Na+] [Sodium Bisulfite]
[1]; 600 μg/ml
  Inhibition Relative to control: 95%
[1]; 1200 μg/ml
  Inhibition Relative to control: 100%
[1]; 1200 μg/ml, potato dextrose and tryptic soy agar plates
  inhibition of contaminants (in words): completely inhibited all contaminants; also recorded: no colonies on the plate
[1]; pass / not pass
  first test: whether the salt inhibits growth of indigenous microorganisms: passed the first test
[1]; unsterilized wood chips, overall statement
  inhibition of growth of indigenous microorganisms (in words): successfully inhibited the growth of microorganisms; also recorded: inhibited all wood contaminants; also recorded: inhibited the growth of indigenous microorganisms
[2]; 100 μg/ml
  Mycelial Dry Weight 36 ± SD: 21 ± 3 mg
  Radial Growth 24 h ± SD: 4.30 ± .26 cm
  Radial Growth 36h ± SD: 7.52 ± .27 cm
[2]; 250 μg/ml
  Mycelial Dry Weight 36 ± SD: 39 ± 8 mg
  Radial Growth 24 h ± SD: 5.16 ± .28 cm
  Radial Growth 36h ± SD: 8.62 ± .20 cm
[2]; 500 μg/ml
  Mycelial Dry Weight 36 ± SD: 36 ± 6 mg
  Radial Growth 24 h ± SD: 5.07 ± .25 cm
  Radial Growth 36h ± SD: 8.68 ± .09 cm
[2]; 1000 μg/ml
  Mycelial Dry Weight 36 ± SD: 10 ± 2 mg
  Radial Growth 24 h ± SD: 1.15 ± .22 cm
  Radial Growth 36h ± SD: 2.88 ± .42 cm
[2]; 250 or 500 μg/ml
  dry weight of the fungus (in words): increased
[2]; 250 or 500 μg/ml, 24 and 36 h
  radial growth (in words): increased the radial growth of P. chrysosporium
[2]; summary statement
  growth of white-rot fungi such as P. chrysosporium (in words): promoted the growth of white-rot fungi
H. setulosa FP-106976-sp; 72 h
  Radial growth 72h ± SD: 1.97 ± .06 cm
H. setulosa FP-106976-sp; 96 h
  Radial growth 96h ± SD: 3.77 ± .25 cm
P. brevispora 7030-sp; 72 h
  Radial growth 72h ± SD: 2.23 ± .06 cm
P. brevispora 7030-sp; 96 h
  Radial growth 96h ± SD: 4.07 ± .38 cm
[3]; 72 h
  Radial growth 72h ± SD: 3.93 ± .42 cm
[3]; 96 h
  Radial growth 96h ± SD: 7.07 ± .29 cm
P. tremellosa PRL-2845; 72 h
  Radial growth 72h ± SD: 1.73 ± .06 cm
P. tremellosa PRL-2845; 96 h
  Radial growth 96h ± SD: 2.97 ± .12 cm
C. subvennispora CZ-3; 72 h
  Radial growth 72h ± SD: 2.37 ± .12 cm
C. subvennispora CZ-3; 96 h
  Radial growth 96h ± SD: 4.37 ± .15 cm
[4]; 72 h
  Radial growth 72h ± SD: 3.63 ± .23 cm
[4]; 96 h
  Radial growth 96h ± SD: 6.07 ± .46 cm
[5]; 72 h
  Radial growth 72h ± SD: 2.13 ± .06 cm
[5]; 96 h
  Radial growth 96h ± SD: 4.00 ± 00 cm
[6]; 72 h
  Radial growth 72h ± SD: 3.20 ± .20 cm
[6]; 96 h
  Radial growth 96h ± SD: 5.77 ± .31 cm
[7]; 72 h
  Radial growth 72h ± SD: 2.60 ± .30 cm
[7]; 96 h
  Radial growth 96h ± SD: 5.07 ± .31 cm
[8]; 72 h
  Radial growth 72h ± SD: 1.63 ± .40 cm
[8]; 96 h
  Radial growth 96h ± SD: 4.20 ± .72 cm
[9]; 72 h
  Radial growth 72h ± SD: 2.37 ± .25 cm
[9]; 96 h
  Radial growth 96h ± SD: 4.80 ± .20 cm
white-rot fungi
  radial growth (in words): increased the radial growth

Reference: US5460697A, “Method of pulping wood chips with a fungi using sulfite salt-treated wood chips” (priority 1994, dated 1995)
